The results in this text go back to PubChem BioAssay (NCI).

Structures are written as SMILES.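 48-hour exposure; five concentrations; linearly interpolated endpoints. Abbreviation: GI50, concentration required for 50% inhibition of growth. At the TGI there is no net growth.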 Bounds are passed on as bounds.

Among the test systems are UACC-257 melanoma; RXF 393 renal; HCC-2998 colon; UO-31 renal; HOP-62 NSCLC; OVCAR-3 ovarian; NCI-H226 lung; HCT-15 colon; SW-620 colon; A498 renal.
What all share (test): DTP human tumour cell line panel, 48 h

Turning to `CCC(C)(O)c1cn(-c2ccc(S(=O)(=O)O)cc2)nn1` (centres undefined), the TGI with UACC-257 melanoma, in the assay on RXF 393 renal, with HCC-2998 colon, with UO-31 renal, in the assay with HOP-62 NSCLC and in the assay on OVCAR-3 ovarian was more than 100 µM throughout. For the same molecule, the TGI with NCI-H226 lung, with HCT-15 colon, with SW-620 colon and in the assay with A498 renal was more than 100 µM each time.
Take `CCC[CH2][Sn]([CH2]CCC)([CH2]CCC)[O]C(=O)C(OC)c1ccccc1` (centres undefined): the GI50 in the assay on UACC-257 melanoma is 0.0969 µM; in the assay on RXF 393 renal, 0.0561 µM; in the assay with HCC-2998 colon, 0.0381 µM; in the assay with UO-31 renal, 0.113 µM; in the assay with HOP-62 NSCLC it was 0.135 µM; in the assay with OVCAR-3 ovarian it was 0.0845 µM. In addition, the GI50 with NCI-H226 lung was 0.104 µM; with HCT-15 colon, 0.0864 µM; in the assay with SW-620 colon, 0.112 µM; in the assay with A498 renal, 0.123 µM. Also, the TGI in the assay on UACC-257 melanoma is 0.217 µM; in the assay on RXF 393 renal, 0.194 µM; in the assay on HCC-2998 colon, 0.144 µM; with UO-31 renal it was 0.234 µM; in the assay with HOP-62 NSCLC, 0.27 µM; in the assay on OVCAR-3 ovarian, 0.213 µM. The TGI was 0.252 µM with NCI-H226 lung, 0.211 µM in the assay with HCT-15 colon, 0.236 µM in the assay with SW-620 colon and 0.263 µM with A498 renal.
As to `NC(CSC(c1ccccc1)(c1ccccc1)c1ccc(F)cc1)C(=O)O` (centres undefined), the GI50 in the assay with UACC-257 melanoma was 0.635 µM; in the assay with RXF 393 renal it was 0.414 µM; with HCC-2998 colon, 0.438 µM; with UO-31 renal, 14.1 µM; in the assay on HOP-62 NSCLC, 3.04 µM; in the assay on OVCAR-3 ovarian, 0.355 µM. For the same molecule, the GI50 with NCI-H226 lung was 5.64 µM; in the assay with HCT-15 colon, 0.511 µM; with SW-620 colon, 0.43 µM; in the assay with A498 renal, 0.344 µM. For the same molecule, the TGI was more than 100 µM in the assay with UACC-257 melanoma; 11.5 µM with HCC-2998 colon; more than 100 µM in the assay on UO-31 renal; more than 85.6 µM with HOP-62 NSCLC; 4.38 µM with OVCAR-3 ovarian; more than 76.3 µM in the assay with NCI-H226 lung. In addition, the TGI in the assay on HCT-15 colon is more than 100 µM; with SW-620 colon, more than 100 µM; with A498 renal it was 33.8 µM.
For the molecule `CCc1nn2ncccc2c1-c1ccnc(NC2CC2)n1`, the GI50 in the assay on UACC-257 melanoma is more than 25 µM; in the assay on RXF 393 renal, more than 23.4 µM; in the assay with HCC-2998 colon it was more than 25 µM; in the assay with UO-31 renal, more than 24 µM; in the assay with HOP-62 NSCLC it was more than 25 µM; with OVCAR-3 ovarian, more than 25 µM. Further, the GI50 is 20.2 µM in the assay on NCI-H226 lung, more than 25 µM in the assay with HCT-15 colon, more than 25 µM with SW-620 colon and 9.73 µM in the assay on A498 renal. Further, the TGI with UACC-257 melanoma, in the assay with RXF 393 renal, in the assay on HCC-2998 colon, in the assay on UO-31 renal, with HOP-62 NSCLC and in the assay with OVCAR-3 ovarian was more than 25 µM in each case. The TGI in the assay on NCI-H226 lung, in the assay on HCT-15 colon, with SW-620 colon and with A498 renal was more than 25 µM throughout.
Consider `COc1cc(Nc2ncnc(Nc3ccc4c(n3)NC(=O)C(C)(C)O4)n2)cc(OC)c1OC`, for which the GI50 in the assay with UACC-257 melanoma is 3.26 µM; in the assay with RXF 393 renal, 0.148 µM; in the assay on HCC-2998 colon it was more than 100 µM; in the assay on UO-31 renal, 0.329 µM; in the assay on HOP-62 NSCLC, 0.555 µM; in the assay with OVCAR-3 ovarian it was 3.46 µM. The concentration for 50% growth inhibition (GI50) in the assay on NCI-H226 lung is 0.297 µM; in the assay with HCT-15 colon it was 1.7 µM; in the assay on SW-620 colon, 2.73 µM; with A498 renal, 0.031 µM. Also, the TGI with UACC-257 melanoma is more than 100 µM; with RXF 393 renal, 0.622 µM; in the assay on HCC-2998 colon, more than 100 µM; in the assay with UO-31 renal, more than 100 µM; with HOP-62 NSCLC, more than 66.5 µM; in the assay with OVCAR-3 ovarian it was more than 100 µM. For the same molecule, the total growth inhibition concentration (TGI) with NCI-H226 lung is more than 100 µM; with HCT-15 colon it was more than 100 µM; with SW-620 colon it was more than 100 µM; in the assay with A498 renal, 0.29 µM.
As to `COc1cccc(NC(=O)c2sc3nc4c(cc3c2N)C(O)CCC4)c1` (centres undefined), the GI50 is 28.2 µM in the assay on UACC-257 melanoma; 0.278 µM in the assay on RXF 393 renal; 0.347 µM in the assay with HCC-2998 colon; 0.607 µM with UO-31 renal; 0.26 µM in the assay on HOP-62 NSCLC; 0.106 µM in the assay on OVCAR-3 ovarian. For the same molecule, the GI50 was 0.669 µM with NCI-H226 lung, 0.0856 µM in the assay with HCT-15 colon, 0.107 µM with SW-620 colon and 0.112 µM in the assay with A498 renal. The TGI in the assay on UACC-257 melanoma was more than 100 µM; in the assay on RXF 393 renal it was 37.7 µM; in the assay with HCC-2998 colon, more than 100 µM; with UO-31 renal it was more than 100 µM; in the assay on HOP-62 NSCLC it was 64.6 µM; with OVCAR-3 ovarian, 0.515 µM. Also, the TGI is more than 100 µM in the assay with NCI-H226 lung, more than 100 µM with HCT-15 colon, more than 100 µM in the assay with SW-620 colon and 4 µM in the assay on A498 renal.
As for `Cc1ccccc1N=Nc1c(-c2ccccc2)nn(C(=O)CC(=O)Nc2cccc(Cl)c2)c1-c1ccccc1`, the TGI with UACC-257 melanoma is 2.58 µM; in the assay on RXF 393 renal, 28.4 µM; in the assay on HCC-2998 colon, more than 31.6 µM; in the assay on UO-31 renal, more than 31.6 µM; with HOP-62 NSCLC, more than 31.6 µM; in the assay on OVCAR-3 ovarian, more than 31.6 µM. Moreover, the TGI with NCI-H226 lung was more than 31.6 µM; with HCT-15 colon it was more than 31.6 µM; in the assay on SW-620 colon, more than 39.2 µM; with A498 renal it was 29.9 µM.
In the case of `NC(=S)N/N=C1/CN(c2ccc(Cl)c(Cl)c2)CC(=O)C1c1nc2ccccc2s1` (centres undefined), the TGI with UACC-257 melanoma, in the assay on RXF 393 renal, in the assay with HCC-2998 colon, in the assay with UO-31 renal, in the assay on HOP-62 NSCLC and in the assay with OVCAR-3 ovarian was more than 100 µM in each case. The total growth inhibition concentration (TGI) in the assay with NCI-H226 lung, with HCT-15 colon, in the assay with SW-620 colon and with A498 renal was more than 100 µM throughout.
For `COc1ccc2c(c1)CCc1c(CO)c(COC(=O)NC(C)C)n(C)c1-2`, the TGI was 27.1 µM with UACC-257 melanoma; 38.7 µM in the assay with RXF 393 renal; 51.5 µM with HCC-2998 colon; 19.6 µM with UO-31 renal; 75.6 µM with HOP-62 NSCLC; 54.9 µM with OVCAR-3 ovarian. Further, the total growth inhibition concentration (TGI) with NCI-H226 lung came out at 14.6 µM; in the assay with HCT-15 colon it was 60.8 µM; in the assay with SW-620 colon it was 19.3 µM; in the assay on A498 renal, 77.5 µM.
As to `CC/C(Cc1ccccc1)=C(/c1ccc(O)cc1)c1ccc(OCCN2CCCC2)cc1`, the GI50 is 2.14 µM in the assay with UACC-257 melanoma; 1.56 µM in the assay on RXF 393 renal; 1.54 µM with HCC-2998 colon; 1.43 µM in the assay with UO-31 renal; 1.9 µM with HOP-62 NSCLC; 1.82 µM in the assay with OVCAR-3 ovarian. Moreover, the GI50 in the assay with NCI-H226 lung is 1.77 µM; in the assay with HCT-15 colon, 1.51 µM; in the assay on SW-620 colon, 1.84 µM; in the assay on A498 renal, 1.27 µM. The TGI in the assay on UACC-257 melanoma is 3.89 µM; in the assay with RXF 393 renal, 3.13 µM; in the assay with HCC-2998 colon it was 2.98 µM; with UO-31 renal, 2.95 µM; in the assay with HOP-62 NSCLC it was 3.58 µM; in the assay on OVCAR-3 ovarian, 3.46 µM. The TGI with NCI-H226 lung turned out to be 3.58 µM; with HCT-15 colon, 3.08 µM; in the assay with SW-620 colon, 3.63 µM; in the assay with A498 renal it was 2.72 µM.
With `O=C(Nc1ccc2c(c1)OCCO2)C(=O)c1c[nH]c2ccccc12`, the GI50 with UACC-257 melanoma was more than 23.5 µM; in the assay with RXF 393 renal it was 2.59 µM; in the assay on HCC-2998 colon, 1.37 µM; with UO-31 renal, 5.11 µM; in the assay on HOP-62 NSCLC, 2.9 µM; in the assay with OVCAR-3 ovarian it was 1.29 µM. Moreover, the GI50 was 5.03 µM in the assay on NCI-H226 lung, 0.967 µM in the assay on HCT-15 colon, 0.475 µM with SW-620 colon and 0.535 µM with A498 renal. Further, the TGI in the assay on UACC-257 melanoma was more than 100 µM; in the assay with RXF 393 renal, 11.1 µM; in the assay on HCC-2998 colon it was more than 100 µM; in the assay with UO-31 renal, more than 71.4 µM; with HOP-62 NSCLC, 21.2 µM; in the assay on OVCAR-3 ovarian, 4.68 µM. Further, the TGI in the assay on NCI-H226 lung was 61.3 µM; in the assay on HCT-15 colon, more than 100 µM; in the assay on SW-620 colon it was more than 100 µM; in the assay with A498 renal, 7.08 µM.
For `Nc1ccc(-c2ccc3ncc4ccc(=O)n(-c5cccc(C(F)(F)F)c5)c4c3c2)cn1`, the GI50 in the assay on UACC-257 melanoma is less than 0.01 µM; in the assay with RXF 393 renal, less than 0.01 µM; in the assay with HCC-2998 colon it was less than 0.0118 µM; with UO-31 renal it was less than 0.01 µM; in the assay on HOP-62 NSCLC, less than 0.01 µM; with OVCAR-3 ovarian, less than 0.01 µM. The 50% growth inhibitory concentration (GI50) in the assay with NCI-H226 lung is less than 0.01 µM; in the assay with HCT-15 colon, less than 0.01 µM; in the assay on SW-620 colon it was less than 0.0125 µM; in the assay with A498 renal, less than 0.01 µM. Further, the TGI was found to be 0.0708 µM with UACC-257 melanoma; 0.0443 µM with RXF 393 renal; 1.6 µM in the assay on HCC-2998 colon; 2.39 µM with UO-31 renal; 1.47 µM in the assay on HOP-62 NSCLC; 3.32 µM with OVCAR-3 ovarian. The TGI is 4.7 µM with NCI-H226 lung, 11.7 µM in the assay with HCT-15 colon, 13.3 µM in the assay on SW-620 colon and less than 0.01 µM in the assay with A498 renal.
In the case of `C=C(CN1c2ccccc2Sc2ccccc21)c1ccc(C(=O)Nc2ccccc2N)cc1`, the GI50 in the assay with UACC-257 melanoma was 67.6 µM; in the assay with RXF 393 renal, more than 100 µM; with HCC-2998 colon, 14.6 µM; in the assay with UO-31 renal, 2.03 µM; in the assay with HOP-62 NSCLC, more than 46.7 µM; in the assay with OVCAR-3 ovarian, 8.08 µM. In addition, the GI50 is 8.53 µM in the assay with NCI-H226 lung, more than 42.5 µM with HCT-15 colon, more than 92.3 µM with SW-620 colon and more than 100 µM with A498 renal. In addition, the TGI with UACC-257 melanoma was more than 100 µM; with RXF 393 renal, more than 100 µM; in the assay with HCC-2998 colon it was more than 86.3 µM; with UO-31 renal it was more than 100 µM; in the assay on HOP-62 NSCLC, more than 100 µM; with OVCAR-3 ovarian it was more than 100 µM. The total growth inhibition concentration (TGI) in the assay with NCI-H226 lung, in the assay on HCT-15 colon, in the assay on SW-620 colon and in the assay with A498 renal was more than 100 µM throughout.
